As a reminder, the IC50 is the concentration that gives 50% inhibition.

Each structure is given as a SMILES string. Marks after values point to notes of the source that are not given here.

Holding throughout (assay type): biochemical
For assay [1], the target named is α-amylase (α-AM) (Aspergillus oryzae, UniProt P0C1B3). Kind of assay: α-AM inhibitory activity in vitro. The note with it: concentration that inhibits 25% of enzyme activity; mean ± SD, three replicates. As for the experimental part: (§1) Shoot methanolic extracts were evaporated in a freeze-dryer (Labconco, Kansas City, MO, USA), and dry extracts were dissolved in 50% dimethyl sulfoxide. […] The protocols for MAO-A, AChE, BChE, TYR, α-AM, α-GL, PL, and CHE inhibitory activities were presented in our previous studies. […] Three replicates were used for all enzyme-inhibitory tests.

For assay [2], the target named is T1, monoamine oxidase-A (MAO-A) (Homo sapiens, UniProt P21397).
T1 sequence (P21397 1-527): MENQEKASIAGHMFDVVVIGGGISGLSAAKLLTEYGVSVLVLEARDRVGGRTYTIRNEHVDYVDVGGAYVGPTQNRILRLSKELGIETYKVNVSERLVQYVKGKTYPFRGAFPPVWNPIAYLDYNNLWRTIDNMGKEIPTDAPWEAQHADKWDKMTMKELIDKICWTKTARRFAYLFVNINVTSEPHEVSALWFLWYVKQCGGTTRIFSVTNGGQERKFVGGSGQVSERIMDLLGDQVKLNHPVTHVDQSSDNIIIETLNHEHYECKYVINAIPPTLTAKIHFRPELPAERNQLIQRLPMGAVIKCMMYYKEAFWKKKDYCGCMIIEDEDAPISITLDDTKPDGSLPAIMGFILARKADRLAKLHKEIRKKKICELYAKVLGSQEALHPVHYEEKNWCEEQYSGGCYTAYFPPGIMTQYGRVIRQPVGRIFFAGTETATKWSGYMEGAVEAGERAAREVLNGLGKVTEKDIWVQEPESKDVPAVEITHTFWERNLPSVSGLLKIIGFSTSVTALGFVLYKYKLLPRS
Kind of assay: MAO-A inhibitory activity in vitro. As for the experimental part:
as §1

Assay [3] deals with T2, cholesterol esterase (CHE) (Homo sapiens, UniProt P19835).
T2 sequence (P19835 21-753): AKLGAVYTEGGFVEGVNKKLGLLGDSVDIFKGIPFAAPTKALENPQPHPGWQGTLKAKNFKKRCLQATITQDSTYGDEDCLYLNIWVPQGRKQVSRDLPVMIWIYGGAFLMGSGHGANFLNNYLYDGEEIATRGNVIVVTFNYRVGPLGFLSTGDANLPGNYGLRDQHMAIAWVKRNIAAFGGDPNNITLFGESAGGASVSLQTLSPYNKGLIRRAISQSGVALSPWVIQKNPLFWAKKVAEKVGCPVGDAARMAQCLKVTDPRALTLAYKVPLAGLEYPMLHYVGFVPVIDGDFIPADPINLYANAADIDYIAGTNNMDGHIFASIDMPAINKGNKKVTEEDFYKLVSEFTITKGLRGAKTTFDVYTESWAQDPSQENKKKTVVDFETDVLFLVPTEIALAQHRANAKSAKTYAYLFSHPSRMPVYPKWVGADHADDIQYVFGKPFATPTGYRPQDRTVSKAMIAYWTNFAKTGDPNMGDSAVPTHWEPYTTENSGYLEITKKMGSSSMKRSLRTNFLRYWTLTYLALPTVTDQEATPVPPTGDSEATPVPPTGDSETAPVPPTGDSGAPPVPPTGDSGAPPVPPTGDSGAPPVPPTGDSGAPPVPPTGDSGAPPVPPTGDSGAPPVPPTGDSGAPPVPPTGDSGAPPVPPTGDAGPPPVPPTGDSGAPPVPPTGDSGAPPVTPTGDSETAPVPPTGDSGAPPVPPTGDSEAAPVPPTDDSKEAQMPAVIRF
The assay can be described thus: CHE inhibitory activity in vitro. The following applies: concentration that inhibits 50% of enzyme activity; mean ± SD, three replicates. As for the experimental part: as §1

For `C[C@H]1O[C@H](O[C@H]2[C@H](O)[C@@H](O)[C@@H](O[C@H]3[C@H](O)[C@@H](O)C(O)O[C@@H]3CO)O[C@@H]2CO)[C@H](O)[C@@H](O)[C@@H]1N[C@H]1C=C(CO)[C@@H](O)[C@H](O)[C@H]1O` (stereo partly drawn) [Acarbose], the “α-AM (IC25)” value in assay [1] is given as 6.77 ± 0.76 ^a µg·mL^−1.

`Oc1ccc(Cl)cc1Cl` [DCP, 2,4-dichlorophenol] gave an IC50 in assay [2] of 226 µM.

Consider `CCC(C)(C)C(=O)O[C@H]1C[C@@H](C)C=C2C=C[C@H](C)[C@H](CC[C@@H]3C[C@@H](O)CC(=O)O3)[C@H]21` [Simvastatin], for which half-maximal inhibition in assay [3] (IC50) required 383 µM.

These data come from publication PMC11357161, “Phytochemical Analysis, Biological Activities, and Docking of Phenolics from Shoot Cultures of Hypericum perforatum L. Transformed by Agrobacterium rhizogenes” (Molecules, 2024).
